The structures appear in SMILES notation. Several values for one entry are separate records, joined by “and”; a condition that tells them apart may be missing. Equal values may be shown once.

Format in all cases: in vivo
For assay [1], the system named is male C57BL/6 mice fed a Methionine and Choline-deficient (MCD) diet. In words: MCD model (methionine and choline deficient diet, NASH). Conditions: individual animals, 30 mg/kg q.d. p.o., MCD diet 8 wk. The procedure: The methionine and choline deficient (MCD) diet model is used to produce a severe phenotype of NASH in […] (Santhekadur et al., 2017), and is used to evaluate the compounds of the invention.
At induction, 8 weeks-old male C57BL/6 mice (Janvier Labs, France) maintained at 22° C.±2° C. and humidity at 55%±10%, with a 12-hrs dark/light cycle are fed a standard diet (chow (A04C-10, Safe, France) or a Methionine and Choline-deficient (MCD) diet (EFTD.90262, Ssniff, Soest, Germany) for 8 weeks. All animals have access to filtered tap drinking water.
Four weeks after the induction, the animals are either assigned to a control-group or a test-group.
Test group animals are dosed with the a test compound, i.e. Compound A (CpdA) or Compound B (CpdB), at 30 mg/kg, q.d., p.o. formulated in methylcellulose 0.5%, 1 equivalent HCl. The control groups receives a similar volume of vehicle (10 mL/kg), i.e. the standard diet for control group 1 (C1) and the MCD diet for control group 2 (C2). Mice are randomly assigned to a treatment group according to their body weight in order to ensure a homogenous reparation.
After sacrifice (week 8), the activity of the test compound on the development of NASH is assessed by plasma ALT and AST levels and in liver by histopathological examination of fibrosis and steatosis (Sirius red, Oil Red O), collagen (OH-Pro) and triglycerides content and expression of fibrotic and inflammatory genes.
In addition, the NAS score is determined to further evaluate the compounds with respect to their effect on diet induced NASH. The nonalcoholic fatty liver disease activity scoring (NAS) has been proposed and accepted as a tool to measure changes in NAFLD during therapeutic trials (Brunt et al., 2011; Kleiner et al., 2005).
The NAS score (0-8) is defined as the sum of the steatosis score (0-3), lobular inflammation score (0-3), ballooning score (0-2). A NAS score of ≥5 is indicative of a NASH diagnostic.

The test system of assay [2] is male C57BL/6 mice fed CDAHF diet. Kind of assay: CDAHFD model (choline-deficient, L-amino acid-defined, high-fat diet). As to conditions: individual animals, CDAHFD 10W, 30 mg/kg q.d. p.o.
Assay [3] relates to female C57BL/6J mice, lung fibrosis induced by radiation. In words: Radiation induced fibrosis mice model. As to conditions: individual animals, irradiated lung, nintedanib 60 mg/kg QD PO D1-D14. The procedure:
Pneumonitis and lung fibrosis are the major radiation-induced complications following thoracic radiotherapy, which is one of the major treatment of lung and breast cancers, lymphomas and hematopoietic transplant conditioning.
The objective of this model is to evaluate the effect of a compound of the invention in lung fibrosis induced by radiation in mice. (Bickelhaupt et al., 2017)
7 weeks old (18/22 gr) female C57BL/6J mice from Charles River (France) are maintained on 12 h light/dark cycle at 22° C. with ad libidum access to tap water and food.
The test compounds are dissolved/suspended in appropriate vehicle prior to using and then kept light-free, under agitation at room temperature.
The dose volume administered is 10 mL/kg and the volume is adapted following mean body weight (BW) of the group as follows: 200 μL if mean BW<22.5 g, 250 μL if mean BW≥22.5 g; 300 μL if mean BW>27.5 g.
On day 1 of week 1, the animals are exposed at the thorax to a 17 Gray irradiation dose, under isoflurane anesthesia. […]
Body weight are recorded once a week, and on Day 14, lung function measurement under anesthesia is realized by Flexivent (Devos et al., 2017) for all groups before sacrifice.
At sacrifice on Day 14, the lungs are collected and fixed in 4% formaldehyde for 24 h before embedding in paraffin. […] The anti-collagen I antibody is detected and amplified by ImmPress kit (Vector Laboratories, Cat. No: MP-7401). The immunostained sections are then scanned (Nanozoomer 2.0HT, Hamamatsu) before quantification by image analysis (CaloPix software, TRIBVN Healthcare). Data are expressed as percentage collagen I area per area of lung tissue.
Values for all mice from the same group are averaged. Data are expressed as mean±sem and are compared with a one-way ANOVA followed by Dunnett multiple comparison post hoc test. […]
Manganese superoxide dismutase (MnSOD), located in mitochondria, catalyzes the conversion of superoxide into H2O2, and is a marker of antioxidant response induced by oxidative stress. MnSOD expression is measured immunohistochemically following a protocol adapted from Inghilleri et al. (Inghilleri et al., 2006).
At sacrifice on Day 14, the lungs are collected and fixed in 4% formaldehyde for 24 h before embedding in paraffin. […] The anti-MnSOD antibody is detected by an anti-rabbit biotinylated antibody (Vector Laboratories, Cat. No: BA-1100) amplified by avidin-biotin peroxidase (Vector Laboratories, Cat. No: PK-6100). […] The immunostained sections counterstained with Gill's hematoxylin are then scanned (Nanozoomer 2.0HT, Hamamatsu) before quantification by image analysis (CaloPix software, TRIBVN Healthcare). Data are expressed as percentage MnSOD stained area per area of lung tissue.

Assay [4] deals with C57BL/6N male mice, bleomycin induced pulmonary fibrosis. In words: Therapeutic bleomycin induced pulmonary fibrosis 21-day mice model. Conditions: individual animals, BLM, nintedanib 60 mg/kg QD PO D7-D21. The procedure: The aim of the study is to test the efficacy of a test compound at three different doses in a 21-day model of bleomycin induced pulmonary fibrosis in mice.
11 week-old C57BL/6N male mice from Charles River (Italy) are maintained on 12 h light/dark cycle at 22° C. with ad libidum access to tap water and food.
On day 0, all mice in groups 2-4 receive a 1.5 U/kg oropharyngeal administration of bleomycin (BLM) to induce pulmonary fibrosis Animals in group 1 are not administered bleomycin, but instead receive a single dose of saline via the oropharyngeal route, and are considered sham control mice.
Animals are examined clinically twice daily. List of clinical signs and parameters are indicated in humane endpoints table. Animals are weighed daily starting from DO.
On day 21, lung functionality is determined. After deep anesthesia induced by an intraperitoneal injection (10 mL/kg) of a solution of xylazine (5 mg/kg) and ketamine (75 mg/kg), the trachea is exposed through midline incision and a cannula is inserted. Mice are ventilated with a tidal volume of 10 mL/kg at a frequency of 150 breaths/minute. FlexiVent (SCIREQ®) perturbations are performed three times. Deep Inflation and Pressure-Volume loops (PV loops) with stepwise increasing pressure are performed to measure the Inspiratory Capacity and stepwise pressure-driven perturbation (PVs-P). PV loops between 0 and 30 cm H2O are generated to obtain Total Lung Capacity (A). A snapshot perturbation maneuver is imposed, which is a threefold sinusoidal wave of in- and expiration controlled by the ventilator, resulting in resistance (Rrs), compliance (Crs), and elastance (Ers) of the whole respiratory system (airways, lung and chest wall). A value for each group is calculated with average FlexiVent-validated measurements recorded in each individual subject.
Then, two hours after the last dose of test substance and nintedanib, mice are sacrificed by anesthetic overdose. The lungs are excised and weighed individually. The lungs are then placed into marked bottles containing 10% buffered formalin for further histopathological evaluation.
Body weight data and lung weight data are processed using MS Excel. Statistical analysis and graphical presentation are performed using GraphPad Prism software (version 5.04).
For histopathological evaluation, whole lungs are embedded in paraffin and stained with Mallory's trichrome.
Pulmonary histological changes are assessed using Matsuse's modification of Ashcroft score (Ashcroft et al., 1988; Matsuse et al., 1999). Statistical analysis and graphical presentation is performed using GraphPad Prism software (version 5.04). Mann-Whitney test is employed.
Differences between groups are considered statistically significant when p<0.05.

With `Cc1c2n(c(OC[C@@H]3COCCO3)cc1=O)CCc1cc(OCC(F)(F)F)ccc1-2` [Compound B, 4-[[(2S)-1,4-dioxan-2-yl]methoxy]-1-methyl-9-(2,2,2-trifluoroethoxy)-6,7-dihydrobenzo[a]quinolizin-2-one], the “TIMP1 NRQ gene expression” value in assay [1] (NRQ scaled versus disease, Fig 8 Panel B) was 0.3 (3×) and 0.4 (2×) and 0.5 and 1.7 (2×) and 1.2 and 1.4. Also, in assay [1] (dosing from week 4, Normalised Relative Quantity scaled versus disease, FIG. 8 Panel A), the “Col1a NRQ gene expression” value is 0.5 and 2.0 and 1.3 and 1.5 (2×) and 0.4 and 0.3 (2×) and 0.2 (2×). In addition, the “TNfα NRQ gene expression” value in assay [1] (liver, NRQ scaled versus disease, Fig 9 Panel A) was 0.4 (2×) and 0.7 and 1.1 (2×) and 0.8 and 0.9 and 0.6 and 0.3 (2×). The “CC12 NRQ gene expression” value in assay [1] (liver, NRQ scaled versus disease, Fig 9 Panel B) is 0.8 and 0.3 and 0.7 (2×) and 1.2 (2×) and 0.9 (2×) and 1.5 and 0.5. Moreover, in assay [1] (total NAS score (0-8), Fig 10), the NAS scoring data is 5.0 and 7.0 (2×) and 6.0 (7×).

With `CSc1ccc(C(=O)/C=C/c2cc(C)c(OC(C)(C)C(=O)O)c(C)c2)cc1` [CpdC, elafibranor, reference compound], the “Col1a1 expression profiles (NRQ-scaled versus Disease-Vehicle)” value in assay [2] (Fig 12 panel A) is 0.07 and 0.06 and 0.48 and 0.15 and 0.09 and 0.43 and 0.61 and 0.17. Moreover, in assay [2] (Figure 12 panel B), the “TNFα expression profiles (NRQ-scaled versus Disease-Vehicle)” value was 0.45 and 0.19 and 0.41 and 0.75 and 0.55 and 0.32 (2×) and 0.26 and 0.52. The “Fibrosis (Sirius red area %)” value in assay [2] (liver, Figure 11) is 0.45% and 0.19% and 0.41% and 0.75% and 0.55% and 0.32% (2×) and 0.26% and 0.52%.

On to `COC(=O)c1ccc2c(c1)NC(=O)/C2=C(\Nc1ccc(N(C)C(=O)CN2CCN(C)CC2)cc1)c1ccccc1` [nintedanib], for which the “Type I collagen stained area fraction” value in assay [3] (Figure 15) was 10.5% (2×) and 7.6% and 7.1% and 6.5% and 11.0% and 8.2% and 9.3% and 8.9% and 13.7%. The “MnSOD stained area fraction” value in assay [3] (Figure 16) was 1.19% and 0.75% and 0.25% and 0.50% and 0.79% and 0.62% and 0.69% and 0.92% and 0.53% and 1.11%. Further, the “Compliance of the Respiratory System” value in assay [4] (Figure 14 panel B) is 0.039 mL/cmH2O (2×) and 0.031 mL/cmH2O and 0.032 mL/cmH2O (2×) and 0.040 mL/cmH2O and 0.027 mL/cmH2O (3×) and 0.034 mL/cmH2O and 0.035 mL/cmH2O and 0.045 mL/cmH2O and 0.015 mL/cmH2O. Moreover, in assay [4] (Figure 14 panel C), the “Elastance of the Respiratory System” value is 25.83 cmH2O/mL and 32.61 cmH2O/mL and 31.04 cmH2O/mL and 25.16 cmH2O/mL and 37.06 cmH2O/mL and 36.60 cmH2O/mL and 31.06 cmH2O/mL and 29.07 cmH2O/mL and 37.31 cmH2O/mL and 28.26 cmH2O/mL and 25.68 cmH2O/mL and 22.39 cmH2O/mL and 68.28 cmH2O/mL. For the same molecule, in assay [4] (Matsuse's modification, Figure 13), the “Ashcroft Score” value was 2.0 and 2.3 and 2.8 and 3.2 and 3.7 (2×) and 3.5 (4×) and 3.0 (2×) and 3.4 and 2.5 and 2.4. The “Inspiratory Capacity” value in assay [4] (day 21 FlexiVent, Figure 14 panel A) was 0.69 mL and 0.57 mL and 0.62 mL and 0.71 mL and 0.48 mL and 0.58 mL and 0.68 mL and 0.53 mL and 0.56 mL and 0.76 mL and 0.78 mL and 0.33 mL.

The values above are taken from patent US20210106582A1, “COMPOUNDS AND PHARMACEUTICAL COMPOSITIONS THEREOF FOR USE IN THE TREATMENT OF FIBROTIC DISEASES” (Galapagos NV, priority 2017, published 2021).
